Measured values taken from patent publication US8916681B2, “Compound, use and method” (Medical Research Council, priority 2007, dated 2014).
“Also recorded” adds a separate entry of the source. Non-standard residues stand in square brackets, D forms with d. Residues, ends and D or L forms follow the SMILES beside them.

Tests used:
[1] = system: serum LH; test: Serum LH in orchidectomized (castrated) male rats, icv injections; assay type: in vivo, rat; conditions: 1 nmol at 0, 60 and 120 min; significant at 240 min
Procedure: In addition, repeated icy injection of the peptide 234 was also conducted in orchidectomized (ORX) rats. The animals were subjected to bilateral ORX via the scrotal route, and after 1-wk after surgery were subjected to cannula implantation as described above. The test involved three intracerebral injections of the antagonist (1 nmol; at 0-, 60- and 120-min of the procedure) and blood sampling by jugular venipuncture in basal conditions (0-min) and 15-min after each icy injection. Additional blood samples were obtained at 180- and 240-min after central administration of peptide 234. For each time-point, 10-12 samples were taken per group.
Serum LH levels were measured in a volume of 50 μl using a double-antibody method and radioimmunoassay kits supplied by the NIH (Dr. AF Parlow, NIDDK). […] For each hormone, all samples were measured in the same assay. […]
Hormonal determinations were conducted in duplicate, with a minimal total number of 10 samples per group. When appropriate, in addition to individual time-point measurements, integrated LH secretory responses were calculated as the area under the curve (AUC), following the trapezoidal rule. […] Results were analyzed for statistically significant differences using Student t-test or ANOVA followed by Student-Newman-Keuls multiple range test (SigmaStat 2.0). […]

[2] = system: plasma LH, GH, prolactin and cortisol; test: Central (third ventricle) infusion in OVX ewes: plasma LH, GH, prolactin, cortisol; assay type: in vivo, sheep
Text: Adult Corriedale ewes were housed under natural lighting and were bilaterally ovariectomized (OVX) at least 1 month before any experimental manipulations. Permanent indwelling third cerebral ventricular (3V) cannulae were implanted in a subsequent surgical procedure as previously described (Barker-Gibb et al., 1995, J. Endocrinol., 147:565-79). Approximately two weeks after 3V surgery, one external jugular vein was cannulated for blood sampling and animals housed in single pens; cannulae were kept patent with heparinized saline.
Ewes were assigned to two treatment groups (n=4 per group); kisspeptin antagonist (diluted in artificial cerebrospinal fluid, aCSF; 150 mM NaCl, 1.2 mM CaCl2, 1 mM MgCl2, 2.8 mM KCl) or control (aCSF only). The following day, infusion lines were connected to 3V cannulae and blood sampling commenced at 07.00 h. Samples were collected every 10 min. After 3 h of sampling, kisspeptin antagonist (or control) was infused into the 3V at a dose of 40 μg/h for 1 h, with an initial loading dose of 10 μg. Both kisspeptin antagonist and vehicle were infused at 200 μl/h for 1 h using Graseby® MS16A infusion pumps (Smiths Medical Australasia Pty. Ltd., Gold Coast, Qld, Australia). After infusion, 3V lines remained in place and blood sampling continued for a further 2 h (total of 6 h). Plasma was harvested immediately from samples, and frozen at −20 C until assayed.
Plasma LH concentrations were measured in duplicate, using the method of Lee et al. (1976, J. Reprod. Fertil., 46:1-6) with NIH-oLH-518 as standard. Assay results were calculated using the program of Burger et al. (1972, J. Lab. Clin. Med., 80:302-12). Assay sensitivity was 0.08 ng/ml and the intra-assay coefficient of variation was less than 10% over the range of 0.3-12.8 ng/ml. A pulse analysis of the LH data was performed based on the method described for GnRH (Clarke, 1993, Endocrinology, 133:1624-32).
All experimental procedures were conducted under a protocol approved by the Monash School of Biomedical Sciences Animal Ethics Committee. Adult Corriedale ewes were housed under natural lighting and were bilaterally ovariectomized (OVX) at least 1 month before any experimental manipulations. Permanent indwelling third cerebral ventricular (3V) cannulae were implanted in a subsequent surgical procedure as previously described (49). Approximately 2 weeks after 3V surgery, one external jugular vein was cannulated for blood sampling and animals housed in single pens; cannulae were kept patent with heparinized saline. Ewes were assigned to two treatment groups (4/group); peptide 234 (diluted in artificial cerebrospinal fluid, aCSF; 150 mM NaCl, 1.2 mM CaCl2, 1 mM MgCl2, 2.8 mM KCl) or control (aCSF only). The following day, infusion lines were connected to 3V cannulae and blood sampling commenced at 07.00 h. Samples were collected every 10 min. After 3 h of sampling, peptide 234 (or control) was infused into the 3V at a dose of 40 μg/h for 1 h, with an initial loading dose of 10 μg. Both peptide 234 and vehicle were infused at 200 μl/h using Graseby® MS16A infusion pumps (Smith Medical Australasia Pty. Ltd.). After infusion, 3V lines remained in place and blood sampling continued for a further 2 h (total of 6 h). Plasma was harvested immediately from samples, and frozen at −20 C until assayed.
Plasma LH concentrations were measured in duplicate, with NIH-oLH-518 as standard (49). Assay sensitivity was 0.1 ng/ml and the intra-assay coefficient of variation was less than 10% over the range of 0.3-12.8 ng/ml. Pulse analysis of the plasma LH data was as previously described (36). Plasma samples were assayed for GH in duplicate using the standard NIDDK-oGH-I-4 and NIDDK-anti-oGH-2 antiserum (50). The assay sensitivity was 1 ng/ml, the intra-assay CV was less than 10% between 4 and 51 ng/ml and the inter-assay CV was 20%.
Plasma prolactin concentrations were measured in duplicate using Sigma, Lot 114F-0558, NOL-7135 as standard (50). […]

[3] = before, during or after infusion

## CC(=O)N[C@H](C)C(=O)N[C@@H](CC(N)=O)C(=O)N[C@@H](Cc1c[nH]c2ccccc12)C(=O)N[C@@H](CC(N)=O)C(=O)NCC(=O)N[C@@H](Cc1ccccc1)C(=O)NCC(=O)N[C@H](Cc1c[nH]c2ccccc12)C(=O)N[C@@H](CCCNC(=N)N)C(=O)N[C@@H](Cc1ccccc1)C(N)=O [Peptide 234] (Ac-[dA]NWNGFG[dW]RF-NH2)
[1]
  serum LH levels in castrated males: inhibited; also recorded: tended to reduce; also recorded: blocked the increase in LH
[2]; After Infusion
  Mean GH: 9.11 ± 1.44 ng/mL
  Mean LH: significant reduction; also recorded: reduced
[2]; After Infusion (240-360 min), listed as Peptide-234
  LH pulse amplitude: 0.68 ± 0.05 ng/mL
[2]; After Infusion (240-360 min), listed as peptide 234
  LH pulse amplitude: significant reduction; also recorded: diminished amplitude; also recorded: markedly reduced
[2]; Before Infusion
  Mean GH: 5.11 ± 1.48 ng/mL
  Mean LH: 2.73 ± 0.43 ng/mL
[2]; Before Infusion (0-180 min)
  LH pulse amplitude: 1.63 ± 0.28 ng/mL
[2]; During Infusion
  Mean LH: 2.89 ± 0.55 ng/mL
[2]; During Infusion (180-240 min), 40 μg/h, loading dose 10 μg
  LH pulse amplitude: 1.82 ± 0.52 ng/mL
[2]; During Infusion, listed as Peptide-234
  Mean GH: 14.07 ± 2.78 ng/mL
[2]; During Infusion, listed as peptide 234
  Mean GH: significant increase; also recorded: increased; also recorded: appeared to increase
[2]; after ventricular administration
  number of LH secretory pulses: markedly reduced
[2]; [3]
  cortisol concentrations: no effect
  prolactin concentrations: no effect
